Tested on: N9 microglial cells
Experiment: anti-inflammatory assay, LPS-induced microglial activation (NO release)
Assay type: cell-based, mouse
Conditions: bacterial lipopolysaccharide, derivative 1-10 μM, 24 hr
Description: Anti-inflammatory assay. Mouse N9 microglial cells plated in DME with 7.5% DFCS were treated with 10 μg/ml bacterial lipopolysaccharide (Sigma) alone or in the presence of the Fisetin derivatives (1-10 μM) or Fisetin (10 μM) as a positive control. After 24 hr the medium was removed, spun briefly to remove floating cells and 100 μl assayed for NO using 100 μl of the Griess Reagent (Sigma) in a 96 well plate. After incubation for 10 min at room temperature the absorbance at 550 nm was read on a microplate reader.
Three secondary screens allowed assessment of three key activities of Fisetin that are highly relevant to stroke, as well as other neurological disorders: maintenance of glutathione (GSH), the major endogenous cellular antioxidant, inhibition of LPS-induced microglial activation, an indicator of anti-inflammatory activity and PC12 cell differentiation, a measure of neurotrophic activity. All of these activities are relevant to the nerve cell loss seen in stroke (Gelderblom, et al., Stroke. 2009, 40 (5), 1849-1857; Pandya, et al., Cent. Nerv. Syst. Agents. Med. Chem. (2011) Apr. 27; Lewerenz, et al., J. Neurochem. (2010) 113 (2), 502-504). […] To assess GSH maintenance, total intracellular GSH levels after a 24 hr treatment with the compound both in the absence and presence of glutamate, an inducer of GSH loss and oxidative stress (Tan, et al., Curr. Top. Med. Chem. (2001) 1, 497-506; Maher, et al., Free Radical Research. (2006) 40 (10), 1105-1111) was measured Inhibition of LPS-induced microglial activation was determined by treating N9 mouse microglial cells with LPS alone and in the presence of the compounds and assaying NO release into the medium 24 hr later (Zheng, et al., Int. Immunopharmacol. (2008) 8, (3), 484-494). PC12 cell differentiation was determined by treating PC12 cells with the compounds and looking at neurite outgrowth after 24 hr. In all cases, Fisetin was used as a positive control (Sagara, et al., J. Neurochem. (2004) 90, 1144-1155).
The roles of the four different hydroxyl groups in the activity of Fisetin were studied. […] Cell viability was determined after 24 hr by the MTT assay. The ability to maintain GSH (GSH) was determined by treating HT22 cells with different doses of each derivative (1-10 μM) in the presence of 5 mM glutamate. After 24 hr cell extracts were prepared and analyzed for total GSH. Fisetin (10 μM) was used as a positive control. The ability to induce PC12 cell differentiation (PC12 diff'n) was determined by treating PC12 cells in N2 medium with different doses of each derivative (1-10 μM) for 24 hr. Differentiation was assessed by visual inspection with Fisetin (10 μM) as a positive control. Anti-inflammatory activity (microglia) was assessed in N9 microglial cells treated with bacterial lipopolysaccharide alone or in the presence different doses of each derivative (1-10 μM) for 24 hr. Fisetin was used as a positive control. TEAC values, a measure of direct antioxidant activity, were determined using the ABTS+ decolorization assay.

| Structure (SMILES) | microglia (anti-inflammatory activity) [%] |
| --- | --- |
| COc1cc(-c2cc(OC)c3ccccc3n2)ccc1O [CMS-017, 4-methoxy-2-(4-hydroxy,3-methoxyphenyl)quinoline] | 90 |
| COc1cc(-c2ccccc2)nc2ccccc12 [CMS-021, 4-methoxy-2-phenylquinoline] | 6 |
| CCOc1ccc(-c2oc3cc(C)c(C)cc3c(=O)c2O)cc1OCC [CMS-025, 2-(3,4-diethoxyphenyl)-3-hydroxy-6,7-dimethyl-4H-chromen-4-one] | 11 |
| Cc1cc2oc(-c3ccc(O)c(O)c3)c(O)c(=O)c2cc1C [CMS-027, 2-(3,4-dihydroxyphenyl)-3-hydroxy-6,7-dimethyl-4H-chromen-4-one] | 82 |
| CCOc1ccc(-c2oc3c(ccc4ccccc43)c(=O)c2O)cc1OCC [CMS-036, 2-(3,4-diethoxyphenyl)-3-hydroxy-4H-benzo[h]chromen-4-one] | 13 |
| O=c1c(O)c(-c2ccc(O)c(O)c2)oc2ccc3ccccc3c12 [CMS-041, 3-(3,4-dihydroxyphenyl)-2-hydroxy-1H-benzo[f]chromen-1-one] | 87 |
| COc1cc(-c2cc(=O)c3cc(C)c(C)cc3o2)ccc1OCc1ccccc1 [CMS-058, 2-(4-(benzyloxy)-3-methoxyphenyl)-6,7-dimethyl-4H-chromen-4-one] | 83 |
| COc1cc(-c2oc3cc(C)c(C)cc3c(=O)c2O)ccc1OCc1ccccc1 [CMS-059, 2-(4-(benzyloxy)-3-methoxyphenyl)-3-hydroxy-6,7-dimethyl-4H-chromen-4-one] | 14 |
| COc1cc(/C=C/C(=O)c2ccc3ccccc3c2O)ccc1OCc1ccccc1 [CMS-063, (E)-3-(4-(benzyloxy)-3-methoxyphenyl)-1-(1-hydroxynaphthalen-2-yl)prop-2-en-1-one] | 9 |
| COc1cc(-c2cc(=O)c3cc(C)c(C)cc3o2)ccc1O [CMS-064, 2-(4-hydroxy-3-methoxyphenyl)-6,7-dimethyl-4H-chromen-4-one] | 41 |
| COc1cc(-c2oc3c(ccc4ccccc43)c(=O)c2O)ccc1OCc1ccccc1 [CMS-065, 2-(4-(benzyloxy)-3-methoxyphenyl)-3-hydroxy-4H-benzo[h]chromen-4-one] | 88 |
| COc1cc(-c2oc3cc(C)c(C)cc3c(=O)c2O)ccc1O [CMS-069, 3-hydroxy-2-(4-hydroxy-3-methoxyphenyl)-6,7-dimethyl-4H-chromen-4-one] | 77 |
| COc1cc(-c2oc3c(ccc4ccccc43)c(=O)c2O)ccc1O [CMS-070, 3-hydroxy-2-(4-hydroxy-3-methoxyphenyl)-4H-benzo[h]chromen-4-one] | 78 |
| COc1cc(-c2ccc(O)cc2O)nc2ccccc12 [CMS-083, 4-methoxy-2-(2,4-dihydroxyphenyl)quinoline] | 84 |
| CC(C)Oc1cc(-c2ccc(O)cc2O)nc2ccccc12 [CMS-084, 4-isopropoxy-2-(2,4-dihydroxyphenyl)quinoline] | 64 |
| Cc1cc(O)c(C(=O)/C=C/c2ccc(O)cc2O)cc1C [CMS-087, (E)-3-(2,4-dihydroxyphenyl)-1-(2-hydroxy-4,5-dimethylphenyl)prop-2-en-1-one] | 53 |
| COc1ccc(/C=C/C(=O)c2cc(C)c(C)cc2O)cc1O [CMS-088, (E)-1-(2-hydroxy-4,5-dimethylphenyl)-3-(3-hydroxy-4-methoxyphenyl)prop-2-en-1-one] | 56 |
| COc1ccc(-c2oc3cc(C)c(C)cc3c(=O)c2O)cc1O [CMS-092, 3-hydroxy-2-(3-hydroxy-4-methoxyphenyl)-6,7-dimethyl-4H-chromen-4-one] | 72 |
| Cc1cc2oc(-c3ccc(O)cc3O)c(O)c(=O)c2cc1C [CMS-093, 2-(2,4-dihydroxyphenyl)-3-hydroxy-6,7-dimethyl-4H-chromen-4-one] | 0 |
| Cc1cc2oc(-c3ccc(O)cc3O)cc(=O)c2cc1C [CMS-094, 2-(2,4-dihydroxyphenyl)-6,7-dimethyl-4H-chromen-4-one] | 5 |
| COc1cc(-c2ccc(N(C)C)cc2)nc2ccccc12 [CMS-109, 4-methoxy-2-(4-dimethylaminophenyl)quinoline] | 62 |
| CC(C)Oc1cc(-c2ccc(N(C)C)cc2)nc2ccccc12 [CMS-112, 4-isopropoxy-2-(4-dimethylaminophenyl)quinoline] | 71 |
| CC(C)Oc1cc(-c2ccc(N3CCCC3)cc2)nc2ccccc12 [CMS-113, 4-isopropoxy-2-(4-(pyrrolidin-1-yl)phenyl)quinoline] | 67 |
| O=c1c(O)c(-c2ccc(N3CCCC3)cc2)oc2c1ccc1ccccc12 [CMS-114, 3-hydroxy-2-(4-(pyrrolidin-1-yl)phenyl)-4H-benzo[h]chromen-4-one] | 26 |
| O=c1cc(-c2ccc(N3CCCC3)cc2)oc2c1ccc1ccccc12 [CMS-115, 2-(4-(pyrrolidin-1-yl)phenyl)-4H-benzo[h]chromen-4-one] | 23 |
| Cc1cc2oc(-c3ccc(N4CCCC4)cc3)cc(=O)c2cc1C [CMS-116, 6,7-dimethyl-2-(4-(pyrrolidin-1-yl)phenyl)-4H-chromen-4-one] | 2 |
| Cc1cc2oc(-c3ccc(N(C)C)cc3)cc(=O)c2cc1C [CMS-119, 2-(4-(dimethylamino)phenyl)-6,7-dimethyl-4H-chromen-4-one] | 8 |
| CN(C)c1ccc(-c2cc(=O)c3ccc4ccccc4c3o2)cc1 [CMS-120, 2-(4-(dimethylamino)phenyl)-4H-benzo[h]chromen-4-one] | 35 |

Source: patent US9744164B2, “Neuroprotective polyphenol analogs” (Salk Institute for Biological Studies, priority 2011, dated 2017)
